Our source for the IC50 values is patent publication US20220073525A1, “COMPOSITIONS FOR INHIBITING UBIQUITIN SPECIFIC PROTEASE 1” (FORMA Therapeutics, Inc., priority 2019, published 2022).

Chain of USP1 (O94782 whole entry): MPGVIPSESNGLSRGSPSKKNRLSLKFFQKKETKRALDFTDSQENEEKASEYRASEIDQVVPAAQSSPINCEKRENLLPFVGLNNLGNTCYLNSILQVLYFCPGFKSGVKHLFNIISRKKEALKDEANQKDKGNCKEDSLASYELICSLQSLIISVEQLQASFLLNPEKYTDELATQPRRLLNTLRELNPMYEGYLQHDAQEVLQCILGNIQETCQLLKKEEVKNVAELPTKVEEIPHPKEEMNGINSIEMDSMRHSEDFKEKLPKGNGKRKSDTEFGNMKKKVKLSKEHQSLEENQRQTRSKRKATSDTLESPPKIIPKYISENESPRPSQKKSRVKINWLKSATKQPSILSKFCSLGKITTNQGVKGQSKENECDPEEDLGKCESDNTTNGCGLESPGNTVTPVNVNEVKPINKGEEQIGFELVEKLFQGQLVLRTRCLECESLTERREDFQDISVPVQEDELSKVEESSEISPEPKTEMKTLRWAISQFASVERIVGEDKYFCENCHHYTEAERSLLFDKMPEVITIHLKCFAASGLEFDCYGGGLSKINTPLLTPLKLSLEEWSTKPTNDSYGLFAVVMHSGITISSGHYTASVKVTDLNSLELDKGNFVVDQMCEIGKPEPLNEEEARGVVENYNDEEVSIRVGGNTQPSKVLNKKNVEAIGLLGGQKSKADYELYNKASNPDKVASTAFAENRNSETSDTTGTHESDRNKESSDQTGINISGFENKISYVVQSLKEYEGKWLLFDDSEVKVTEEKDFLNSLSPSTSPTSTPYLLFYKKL
Chain of USP1 (Q8TAF3 whole entry partner): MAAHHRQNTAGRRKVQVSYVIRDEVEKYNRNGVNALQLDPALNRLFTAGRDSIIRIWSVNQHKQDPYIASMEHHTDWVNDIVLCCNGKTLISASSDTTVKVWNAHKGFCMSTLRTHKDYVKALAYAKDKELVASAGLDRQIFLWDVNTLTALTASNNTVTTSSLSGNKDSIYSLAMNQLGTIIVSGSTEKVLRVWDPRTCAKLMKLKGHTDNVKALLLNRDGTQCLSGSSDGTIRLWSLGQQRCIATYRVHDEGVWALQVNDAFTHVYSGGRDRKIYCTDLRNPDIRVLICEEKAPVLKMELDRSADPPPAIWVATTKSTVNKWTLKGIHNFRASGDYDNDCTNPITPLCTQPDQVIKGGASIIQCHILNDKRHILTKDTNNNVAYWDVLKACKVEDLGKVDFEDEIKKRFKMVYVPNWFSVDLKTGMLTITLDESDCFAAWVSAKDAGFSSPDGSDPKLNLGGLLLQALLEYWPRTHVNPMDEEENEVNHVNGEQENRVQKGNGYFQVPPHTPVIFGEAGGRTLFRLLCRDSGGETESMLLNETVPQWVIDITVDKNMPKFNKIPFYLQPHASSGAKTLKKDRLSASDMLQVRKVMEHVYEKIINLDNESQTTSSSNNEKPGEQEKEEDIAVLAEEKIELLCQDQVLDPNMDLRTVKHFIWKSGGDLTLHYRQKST

One assay concerns the target USP1 (Homo sapiens, UniProt O94782). Briefly: Biochemical Assay for USP1 Inhibition (Ub-Rho 110 fluorescence). The following applies: Table 5; 30 min preincubation, Enzyme 0.025 nM, Substrate Ub-Rho 110 25 nM; read-out: IC50 (μm). A digest of the protocol:
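USP1 at 0.025 nM, preincubated 30 min with compound (25 μM to 1.3 nM, 10-point), then Ub-Rho 110 at 25 nM (<<Km) in Tris-HCl pH 8.0, 1 mM GSH, 0.03% BGG, 0.01% Triton X-100. Fluorescence read kinetically over 11 min; % inhibition versus no-enzyme and DMSO controls, IC50 from 4-parameter logistic fit.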
On to `Cc1nc(-c2cccnc2C(C)C)c2n1CCN(c1cccc(C(=O)N3CCC[C@H]3C)c1)C2` [Compound 61, 3-(3-methyl-7-{3-[(2R)-2-methylpyrrolidine-1-carbonyl]phenyl}-5H,6H,7H,8H-imidazo[1,5-a]pyrazin-1-yl)-2-(propan-2-yl)pyridine], for which the IC50 was > 25000 nM.

Consider `Cc1nc(-c2cccnc2C(C)C)c2n1CCN(c1cccc(C(=O)N3CCC[C@@H]3C)c1)C2` [Compound 62, 3-(3-methyl-7-{3-[(2S)-2-methylpyrrolidine-1-carbonyl]phenyl}-5H,6H,7H,8H-imidazo[1,5-a]pyrazin-1-yl)-2-(propan-2-yl)pyridine], for which the IC50 was > 25000 nM.

`COCCn1cc(C(F)(F)F)nc1-c1ccc(N2CCn3c(C)nc(-c4cccnc4C(C)C)c3C2)cc1` [Compound 63, 3-(7-{4-[1-(2-methoxyethyl)-4-(trifluoromethyl)-1H-imidazol-2-yl]phenyl}-3-methyl-5H,6H,7H,8H-imidazo[1,5-a]pyrazin-1-yl)-2-(propan-2-yl)pyridine]: the IC50 was ≤ 1000 nM.

For the compound `Cc1nc(-c2cccnc2C(C)C)c2n1CCN(c1ccc(-c3nc(CO)co3)cc1)C2` [Compound 64, [2-(4-{3-methyl-1-[2-(propan-2-yl)pyridin-3-yl]-5H,6H,7H,8H-imidazo[1,5-a]pyrazin-7-yl}phenyl)-1,3-oxazol-4-yl]methanol], the IC50 is 10000 to 25000 nM.

For the compound `Cc1cnc(-c2ccc(N3CCn4c(C)nc(-c5cccnc5C(C)C)c4C3)cc2)o1` [Compound 65, 3-{3-methyl-7-[4-(5-methyl-1,3-oxazol-2-yl)phenyl]-5H,6H,7H,8H-imidazo[1,5-a]pyrazin-1-yl}-2-(propan-2-yl)pyridine], the half-maximal inhibitory concentration (IC50) was ≤ 1000 nM.

As for `Cc1nc(-c2cccnc2C(C)C)c2n1CCN(c1ccc(-c3ncn(C)n3)cc1)C2` [Compound 66, 3-{3-methyl-7-[4-(1-methyl-1H-1,2,4-triazol-3-yl)phenyl]-5H,6H,7H,8H-imidazo[1,5-a]pyrazin-1-yl}-2-(propan-2-yl)pyridine], the IC50 was 10000 to 25000 nM.

On to `Cc1nc(-c2cccnc2C(C)C)c2n1CCN(c1ccc(-n3nccn3)cc1)C2` [Compound 67, 3-{3-methyl-7-[4-(2H-1,2,3-triazol-2-yl)phenyl]-5H,6H,7H,8H-imidazo[1,5-a]pyrazin-1-yl}-2-(propan-2-yl)pyridine], for which the IC50 was in the range of 1000 to 10000 nM.

As to `Cc1nc(-c2cccnc2C(C)C)c2n1CCN(c1ccc(-c3nc(Cl)cn3C)cc1)C2` [Compound 68, 3-{7-[4-(4-chloro-1-methyl-1H-imidazol-2-yl)phenyl]-3-methyl-5H,6H,7H,8H-imidazo[1,5-a]pyrazin-1-yl}-2-(propan-2-yl)pyridine], the concentration for half-maximal inhibition (IC50) was ≤ 1000 nM.

In the case of `Cc1nc(-c2cccnc2C(C)C)c2n1CCN(c1ccc(-c3cnn(CC(C)C)c3)cc1)C2` [Compound 69, 3-(3-methyl-7-{4-[1-(2-methylpropyl)-1H-pyrazol-4-yl]phenyl}-5H,6H,7H,8H-imidazo[1,5-a]pyrazin-1-yl)-2-(propan-2-yl)pyridine], the IC50 is 1000 to 10000 nM.

On to `COCCn1cc(-c2ccc(N3CCn4c(C)nc(-c5cccnc5C(C)C)c4C3)cc2)cn1` [Compound 70, 3-(7-{4-[1-(2-methoxyethyl)-1H-pyrazol-4-yl]phenyl}-3-methyl-5H,6H,7H,8H-imidazo[1,5-a]pyrazin-1-yl)-2-(propan-2-yl)pyridine], for which the IC50 lay in the range of 10000 to 25000 nM.

With `Cc1nc(-c2cccnc2C(C)C)c2n1CCN(c1ccc(-c3cnn(C4COC4)c3)cc1)C2` [Compound 71, 3-(3-methyl-7-{4-[1-(oxetan-3-yl)-1H-pyrazol-4-yl]phenyl}-5H,6H,7H,8H-imidazo[1,5-a]pyrazin-1-yl)-2-(propan-2-yl)pyridine], the half-maximal inhibitory concentration (IC50) is > 25000 nM.

Consider `Cc1nc(-c2cccnc2C(C)C)c2n1CCN(c1ccc(-c3nc(C(F)(F)F)cn3C3CN(C)C3)cc1)C2` [Compound 73, 3-(3-methyl-7-{4-[1-(1-methylazetidin-3-yl)-4-(trifluoromethyl)-1H-imidazol-2-yl]phenyl}-5H,6H,7H,8H-imidazo[1,5-a]pyrazin-1-yl)-2-(propan-2-yl)pyridine], for which the IC50 was ≤ 1000 nM.

Take `Cc1nc(-c2cccnc2C(C)C)c2n1CCN(c1ccc(-c3cnn(C4CCOCC4)c3)cc1)C2` [Compound 74, 3-(3-methyl-7-{4-[1-(oxan-4-yl)-1H-pyrazol-4-yl]phenyl}-5H,6H,7H,8H-imidazo[1,5-a]pyrazin-1-yl)-2-(propan-2-yl)pyridine]: the IC50 fell in the range of 10000 to 25000 nM.

With `Cc1nc(-c2cccnc2C(C)C)c2n1CCN(c1ccc(-c3nc(C(F)(F)F)cn3C)nc1)C2` [Compound 75, 5-{3-methyl-1-[2-(propan-2-yl)pyridin-3-yl]-5H,6H,7H,8H-imidazo[1,5-a]pyrazin-7-yl}-2-[1-methyl-4-(trifluoromethyl)-1H-imidazol-2-yl]pyridine], the IC50 was ≤ 1000 nM.

Turning to `Cc1nc(-c2cccnc2C(C)C)c2n1CCN(c1ccc(-c3nc(C(F)(F)F)cn3C3CC3)cc1)C2` [Compound 76, 3-(7-{4-[1-cyclopropyl-4-(trifluoromethyl)-1H-imidazol-2-yl]phenyl}-3-methyl-5H,6H,7H,8H-imidazo[1,5-a]pyrazin-1-yl)-2-(propan-2-yl)pyridine], the IC50 was ≤ 1000 nM.

In the case of `Cc1cn(C)c(-c2ccc(N3CCn4c(C)nc(-c5cccnc5C(C)C)c4C3)cc2)n1` [Compound 77, 3-{7-[4-(1,4-dimethyl-1H-imidazol-2-yl)phenyl]-3-methyl-5H,6H,7H,8H-imidazo[1,5-a]pyrazin-1-yl}-2-(propan-2-yl)pyridine], the IC50 was ≤ 1000 nM.

As for `Cc1nc(-c2cccnc2OC(F)F)c2n1CCN(c1ccc(-n3ccc(C(F)(F)F)n3)cc1)C2` [Compound 78, 2-(difluoromethoxy)-3-(3-methyl-7-{4-[3-(trifluoromethyl)-1H-pyrazol-1-yl]phenyl}-5H,6H,7H,8H-imidazo[1,5-a]pyrazin-1-yl)pyridine], the IC50 is ≤ 1000 nM.

`Cc1nc(-c2cccnc2C(C)C)c2n1CCN(c1cnc(-c3nc(C(F)(F)F)cn3C)cn1)C2` [Compound 79, 2-{3-methyl-1-[2-(propan-2-yl)pyridin-3-yl]-5H,6H,7H,8H-imidazo[1,5-a]pyrazin-7-yl}-5-[1-methyl-4-(trifluoromethyl)-1H-imidazol-2-yl]pyrazine]: the IC50 was ≤ 1000 nM.

As to `Cc1nc(-c2cccnc2C(C)C)c2n1CCN(c1ccc(-c3nc(C4CC4)cn3C)cc1)C2` [Compound 80, 3-{7-[4-(4-cyclopropyl-1-methyl-1H-imidazol-2-yl)phenyl]-3-methyl-5H,6H,7H,8H-imidazo[1,5-a]pyrazin-1-yl}-2-(propan-2-yl)pyridine], the IC50 is ≤ 1000 nM.

As to `Cc1cc(Cl)nn1-c1ccc(N2CCn3c(C)nc(-c4cccnc4OC(F)F)c3C2)cc1` [Compound 81, 3-{7-[4-(3-chloro-5-methyl-1H-pyrazol-1-yl)phenyl]-3-methyl-5H,6H,7H,8H-imidazo[1,5-a]pyrazin-1-yl}-2-(difluoromethoxy)pyridine], the IC50 was ≤ 1000 nM.

As to `Cc1cc(Cl)n(-c2ccc(N3CCn4c(C)nc(-c5cccnc5OC(F)F)c4C3)cc2)n1` [Compound 82, 3-{7-[4-(5-chloro-3-methyl-1H-pyrazol-1-yl)phenyl]-3-methyl-5H,6H,7H,8H-imidazo[1,5-a]pyrazin-1-yl}-2-(difluoromethoxy)pyridine], the half-inhibitory concentration (IC50) was ≤ 1000 nM.

For the compound `Cc1nc(-c2cccnc2C(C)C)c2n1CCN(c1cnc(C#N)nc1)C2` [Compound 83, 5-{3-methyl-1-[2-(propan-2-yl)pyridin-3-yl]-5H,6H,7H,8H-imidazo[1,5-a]pyrazin-7-yl}pyrimidine-2-carbonitrile], the IC50 is > 25000 nM.

As for `COc1nc(-c2cccnc2C(C)C)c2n1CCN(c1ccc(-c3nc(C(F)(F)F)cn3C)cc1)C2` [Compound 84, 3-(3-methoxy-7-{4-[1-methyl-4-(trifluoromethyl)-1H-imidazol-2-yl]phenyl}-5H,6H,7H,8H-imidazo[1,5-a]pyrazin-1-yl)-2-(propan-2-yl)pyridine], the IC50 was ≤ 1000 nM.

Regarding `Cc1nc(-c2cccnc2C(C)C)c2n1CCN(c1ccc(-c3nc(C(F)(F)F)cn3C)cc1)C2C` (stereo not shown) [Compound 85, 3-[3,8-dimethyl-7-{4-[1-methyl-4-(trifluoromethyl)-1H-imidazol-2-yl]phenyl}-5H,6H,7H,8H-imidazo[1,5-a]pyrazin-1-yl]-2-(propan-2-yl)pyridine], the half-inhibitory concentration (IC50) was ≤ 1000 nM.

On to `Cc1nc(-c2cccnc2C(C)C)c2n1CCN(c1ccc(-c3nc(C(F)(F)F)cn3C)cn1)C2C` (stereo not shown) [Compound 86, 2-[3,8-dimethyl-1-[2-(propan-2-yl)pyridin-3-yl]-5H,6H,7H,8H-imidazo[1,5-a]pyrazin-7-yl]-5-[1-methyl-4-(trifluoromethyl)-1H-imidazol-2-yl]pyridine], for which the half-inhibitory concentration (IC50) was ≤ 1000 nM.

Still in this assay, the particulars now being: Table 6, additional compounds; 30 min preincubation, Enzyme 0.025 nM, Substrate Ub-Rho 110 25 nM; read-out: IC50.
In the case of `Cc1nc(-c2cccnc2C(C)C)c2n1CCCN(Cc1ccc(-c3nc(C(F)(F)F)cn3C)cc1)C2` [Compound C-2, 1-(2-isopropylpyridin-3-yl)-3-methyl-8-(4-(1-methyl-4-(trifluoromethyl)-1H-imidazol-2-yl)benzyl)-6,7,8,9-tetrahydro-5H-imidazo[1,5-a][1,4]diazepine], the IC50 lay within 1000 to 10000 nM.

Regarding `Cc1nc(-c2cccnc2C(C)C)c2n1CC(=O)N(c1ccc(-c3nc(C(F)(F)F)cn3C)cc1)C2` [Compound C-3, 1-(2-isopropylpyridin-3-yl)-3-methyl-7-(4-(1-methyl-4-(trifluoromethyl)-1H-imidazol-2-yl)phenyl)-7,8-dihydroimidazo[1,5-a]pyrazin-6(5H)-one], the IC50 was > 25000 nM.

With `Cc1nc(-c2ccccc2C(C)C)n2cc(N3CCC(c4nc(C(F)(F)F)cn4C)CC3)ccc12` [Compound C-4, 3-(2-isopropylphenyl)-1-methyl-6-(4-(1-methyl-4-(trifluoromethyl)-1H-imidazol-2-yl)piperidin-1-yl)imidazo[1,5-a]pyridine], the IC50 was > 25000 nM.
